Laboratory results: publication PMC4389443 (Respiratory Research, 2015)

Assays:
[1] = test system: BALB/c mice; experiment: House dust mite/Rhinovirus exacerbated asthma model; type: in vivo, mouse; conditions: 24 hours post RV1b infection; for Total BALF neutrophils: PXS-4728A 2, dexamethasone 2, azithromycin 25 mg.kg^−1 ip.
Protocol: Study performed at the University of Newcastle under local ethics committee. BALB/c mice were sensitized and challenged intranasally to 50 μg of crude HDM extract (Dermatophagoides pteronyssinus extract was obtained from Greer Laboratories) on days 0, 1 and 2 followed by four exposures of 5 μg HDM daily from day 14 to day 17 delivered in 50 μl of sterile saline. Animals were then infected on day 18 with infective Human Rhinovirus 1b RV1B41 (2.5 × 10^6 median tissue culture infective dose) intranasally. Mice were intranasally administered 50 μl infective or ultraviolet light (UV)–inactivated RV1B41. Mice were euthanized 24 hours after the rhinovirus challenge. BAL analysis was performed for total and differential counts and airway hyperreactivity (AHR) was assessed invasively by measurement of total lung resistance and dynamic compliance (BUXCO) in response to methacholine challenge as previously described. […]. Dose of azithromycin was chosen based on previously described findings, in respiratory viral infection models.

[2] = test system: patients with severe neutrophilic asthma; design: method as in PMID 23291349; conditions: significance lost when all patients analysed together; cited from earlier work
[3] = test system: normal volunteers; design: method as in PMID 19643947, PMID 21426372, PMID 24341382; conditions: cited from earlier work
[4] = test system: C57/BL6 mice; experiment: Cecal ligation and puncture (CLP) induced sepsis; conditions: 6 hours; PXS-4728A 6 mg.kg^−1, dexamethasone 5 mg.kg^−1, oral 1 hour prior to surgery
[5] = test system: BALB/c mice; experiment: LPS airway inflammation, 6 hour time point; conditions: 6 hours after LPS; PXS-4728A 0.2 or 2 mg.kg^−1, dexamethasone 10 mg.kg^−1, oral 1 hour prior
[6] = test system: BALB/c mice; experiment: Klebsiella pneumoniae lung infection; conditions: 24 hours
[7] = test system: normal volunteers; design: method as in PMID 19643947, PMID 21426372, PMID 24341382; conditions: cited from earlier work; remark: listed apart in the source
[8] = PXS-4728A 6 mg.kg^−1, dexamethasone 10 mg.kg^−1, oral 1 hour prior to infection

CC[C@H]1OC(=O)[C@H](C)[C@@H](O[C@H]2C[C@@](C)(OC)[C@@H](O)[C@H](C)O2)[C@H](C)[C@@H](O[C@@H]2O[C@H](C)C[C@H](N(C)C)[C@H]2O)[C@](C)(O)C[C@@H](C)CN(C)[C@H](C)[C@@H](O)[C@]1(C)O [azithromycin]
Airways hyperreactivity to methacholine challenge ([1]; PXS-4728A 2, azithromycin 25 mg.kg^−1 ip.): significantly reduced
Total BALF neutrophils [1]: significantly dampened
Exacerbation rates [2]: reduced exacerbation rates

O=C(Nc1ccc(Cl)c(S(=O)(=O)N2CCNCC2)c1O)Nc1cccc(F)c1Cl [SB-656933]
Increased neutrophil content in sputum as a result of ozone challenge [3]: inhibit

C[C@@H]1C[C@H]2[C@@H]3CCC4=CC(=O)C=C[C@]4(C)[C@@]3(F)[C@@H](O)C[C@]2(C)[C@@]1(O)C(=O)CO [dexamethasone, reference compound]
Total BALF neutrophils [1]: no impact
Peritoneal neutrophils [4]: greatly diminished
Total peritoneal inflammatory cells [4]: greatly diminished
Influx of neutrophils in BALF [5]: reduction
Neutrophil migration into the airway spaces (BALF) [6, 8]: significantly dampened
Total leukocyte migration into the airway spaces (BALF) [6, 8]: significantly dampened
Log 10-CFU in the lung (bacterial load), average ([6]; PXS-4728A 6 mg.kg^−1, dexamethasone 10 mg.kg^−1, vehicle 7.59): 8.86 LOG 10-CFU

CC[C@@H](Nc1c(Nc2cccc(C(=O)N(C)C)c2O)c(=O)c1=O)c1ccc(C)o1 [SCH527123]
Increased neutrophil content in sputum as a result of ozone challenge [3]: inhibit

C[C@H](CO)Nc1nc(SCc2cccc(F)c2F)nc2[nH]c(=O)sc12 [AZD8309]
Efficacy during inhaled LPS challenge [7]: efficacious
